In the supplement of paper PMC10307832:

Assays:
Assay in all cases: relative viability (nuclei count vs DMSO), 5 days (fraction); higher = more cells survive
Dinaciclib + Trametinib = compound: CCc1cnn2c(NCc3ccc[n+]([O-])c3)cc(N3CCCC[C@H]3CCO)nc12 [Dinaciclib] + CC(=O)Nc1cccc(-n2c(=O)n(C3CC3)c(=O)c3c(Nc4ccc(I)cc4F)n(C)c(=O)c(C)c32)c1 [Trametinib] (partner 0.02 µM)
Procedure, shortened: (§1)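 For relative viability, nuclei counts in treated wells were divided by those in vehicle wells. Lung cancer cell lines had been pin-tool dosed in 1536-well plates the day after seeding and cultured for 5 days, then fixed and stained in one step (final 0.05% Triton X-100, 1% formaldehyde, 1 ug/ml Hoechst) and imaged at 4×. Doses were one drug alone or a fixed anchor-drug dose plus five library-drug doses (not always all listed) in √10 steps, and values are duplicate-plate medians.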

Dinaciclib + Luminespib = compound: CCc1cnn2c(NCc3ccc[n+]([O-])c3)cc(N3CCCC[C@H]3CCO)nc12 [Dinaciclib] + CCNC(=O)c1noc(-c2cc(C(C)C)c(O)cc2O)c1-c1ccc(CN2CCOCC2)cc1 [Luminespib] (partner 0.01 µM)
Procedure, shortened: as §1

Dinaciclib + OSI-027 = compound: CCc1cnn2c(NCc3ccc[n+]([O-])c3)cc(N3CCCC[C@H]3CCO)nc12 [Dinaciclib] + COc1cccc2cc(-c3nc([C@H]4CC[C@H](C(=O)O)CC4)n4ncnc(N)c34)[nH]c12 [OSI-027] (partner 0.5 µM)
Procedure, shortened: as §1

Dinaciclib + AZD7762 = compound: CCc1cnn2c(NCc3ccc[n+]([O-])c3)cc(N3CCCC[C@H]3CCO)nc12 [Dinaciclib] + NC(=O)Nc1cc(-c2cccc(F)c2)sc1C(=O)N[C@H]1CCCNC1 [AZD7762] (partner 0.2 µM)
Procedure, shortened: as §1

Dinaciclib + Vorinostat = compound: CCc1cnn2c(NCc3ccc[n+]([O-])c3)cc(N3CCCC[C@H]3CCO)nc12 [Dinaciclib] + O=C(CCCCCCC(=O)Nc1ccccc1)NO [Vorinostat] (partner 1 µM)
Procedure, shortened: as §1

| Cell Line | relative viability (Dinaciclib + Trametinib; first compound 0.009487 µM) | relative viability (Dinaciclib + Trametinib; first compound 0.03 µM) | relative viability (Dinaciclib + Trametinib; first compound 0.09487 µM) | relative viability (Dinaciclib + Trametinib; first compound 0.3 µM) | relative viability (Dinaciclib + Luminespib; first compound 0.009487 µM) | relative viability (Dinaciclib + Luminespib; first compound 0.03 µM) | relative viability (Dinaciclib + Luminespib; first compound 0.09487 µM) | relative viability (Dinaciclib + Luminespib; first compound 0.3 µM) | relative viability (Dinaciclib + OSI-027; first compound 0.009487 µM) | relative viability (Dinaciclib + OSI-027; first compound 0.03 µM) | relative viability (Dinaciclib + OSI-027; first compound 0.09487 µM) | relative viability (Dinaciclib + OSI-027; first compound 0.3 µM) | relative viability (Dinaciclib + AZD7762; first compound 0.009487 µM) | relative viability (Dinaciclib + AZD7762; first compound 0.03 µM) | relative viability (Dinaciclib + AZD7762; first compound 0.09487 µM) | relative viability (Dinaciclib + AZD7762; first compound 0.3 µM) | relative viability (Dinaciclib + Vorinostat; first compound 0.009487 µM) | relative viability (Dinaciclib + Vorinostat; first compound 0.03 µM) | relative viability (Dinaciclib + Vorinostat; first compound 0.09487 µM) | relative viability (Dinaciclib + Vorinostat; first compound 0.3 µM) |
| --- | --- | --- | --- | --- | --- | --- | --- | --- | --- | --- | --- | --- | --- | --- | --- | --- | --- | --- | --- | --- |
| LK-2 | 0.574 | 0.152 | 0.133 | 0.125 | 0.165 | 0.139 | 0.166 | 0.162 | 0.218 | 0.196 | 0.16 | 0.131 | 0.448 | 0.116 | 0.0518 | 0.0532 | 0.251 | 0.152 | 0.148 | 0.161 |
| LOU-NH91 | 0.756 | 0.405 | 0.281 | 0.264 | 0.324 | 0.294 | 0.224 | 0.16 | 0.787 | 0.543 | 0.227 | 0.222 | 0.7 | 0.296 | 0.252 | 0.272 | 0.825 | 0.286 | 0.241 | 0.275 |
| LU99A | 0.511 | 0.14 | 0.127 | 0.146 | 0.177 | 0.149 | 0.12 | 0.124 | 0.284 | 0.202 | 0.153 | 0.144 | 0.322 | 0.11 | 0.106 | 0.115 | 0.332 | 0.119 | 0.0932 | 0.109 |
| LXF-289 | 0.682 | 0.307 | 0.0823 | 0.103 | 0.642 | 0.106 | 0.068 | 0.0731 | 0.948 | 0.4 | 0.0693 | 0.0617 | 1.18 | 0.453 | 0.0752 | 0.0836 | 0.813 | 0.257 | 0.0809 | 0.0855 |
| NCI-H23 | 0.305 | 0.164 | 0.13 | 0.122 | 0.197 | 0.172 | 0.168 | 0.148 | 0.714 | 0.227 | 0.132 | 0.1 | 0.246 | 0.125 | 0.107 | 0.0921 | 0.512 | 0.143 | 0.104 | 0.122 |
| NCI-H322M | 0.623 | 0.36 | 0.341 | 0.391 | 0.431 | 0.243 | 0.265 | 0.229 | 0.419 | 0.286 | 0.323 | 0.285 | 0.613 | 0.409 | 0.42 | 0.394 | 0.898 | 0.396 | 0.347 | 0.399 |
| NCI-H358 | 0.109 | 0.0821 | 0.0838 | 0.102 | 0.276 | 0.0982 | 0.0922 | 0.0842 | 0.49 | 0.0844 | 0.0665 | 0.0776 | 0.548 | 0.16 | 0.151 | 0.188 | 0.339 | 0.0713 | 0.0813 | 0.0842 |
| NCI-H441 | 0.42 | 0.156 | 0.137 | 0.114 | 0.262 | 0.18 | 0.177 | 0.193 | 0.519 | 0.185 | 0.202 | 0.153 | 1.17 | 0.758 | 0.141 | 0.16 | 1.07 | 0.34 | 0.174 | 0.131 |
| NCI-H460 | 0.0986 | 0.0124 | 0.0166 | 0.0082 | 0.031 | 0.015 | 0.0141 | 0.0129 | 0.392 | 0.0364 | 0.0185 | 0.0206 | 0.795 | 0.0353 | 0.0383 | 0.0328 | 0.57 | 0.0214 | 0.0191 | 0.0236 |
| NCI-H522 | 0.757 | 0.795 | 0.255 | 0.251 | 1.2 | 0.653 | 0.465 | 0.276 | 0.76 | 0.517 | 0.439 | 0.382 | 0.899 | 0.991 | 0.359 | 0.211 | 1.13 | 0.99 | 0.449 | 0.319 |
| NCI-H596 | 0.711 | 0.692 | 0.19 | 0.19 | 0.564 | 0.566 | 0.174 | 0.186 | 0.787 | 0.665 | 0.392 | 0.153 | 1.09 | 0.479 | 0.262 | 0.24 | 0.629 | 0.613 | 0.252 | 0.158 |
| NCI-H647 | 0.379 | 0.192 | 0.0855 | 0.0533 | 0.133 | 0.0786 | 0.049 | 0.0752 | 0.499 | 0.206 | 0.0824 | 0.0778 | 0.274 | 0.0458 | 0.0377 | 0.0491 | 0.494 | 0.079 | 0.0693 | 0.0788 |
| NCI-H650 | 0.964 | 0.189 | 0.122 | 0.13 | 0.54 | 0.185 | 0.112 | 0.0731 | 0.57 | 0.203 | 0.158 | 0.15 | 1.08 | 0.153 | 0.148 | 0.173 | 0.336 | 0.146 | 0.129 | 0.157 |
| NCI-H727 | 0.39 | 0.324 | 0.324 | 0.392 | 0.404 | 0.253 | 0.301 | 0.282 | 0.468 | 0.317 | 0.285 | 0.326 | 0.716 | 0.413 | 0.356 | 0.34 | 1.33 | 1.15 | 0.362 | 0.312 |
| NCI-H838 | 0.315 | 0.127 | 0.0741 | 0.0706 | 0.295 | 0.134 | 0.104 | 0.0905 | 0.436 | 0.219 | 0.0977 | 0.0933 | 0.993 | 0.601 | 0.622 | 0.553 | 0.496 | 0.146 | 0.145 | 0.15 |
| NCI-H1355 | 0.457 | 0.349 | 0.173 | 0.14 | 0.703 | 0.246 | 0.135 | 0.195 | 0.435 | 0.212 | 0.159 | 0.151 | 1.02 | 0.869 | 0.267 | 0.127 | 0.634 | 0.507 | 0.262 | 0.136 |
| NCI-H1395 | 1.11 | 0.315 | 0.281 | 0.289 | 0.631 | 0.31 | 0.244 | 0.238 | 0.631 | 0.311 | 0.251 | 0.215 | 0.324 | 0.31 | 0.276 | 0.29 | 0.537 | 0.269 | 0.273 | 0.224 |
| NCI-H1437 | 0.403 | 0.212 | 0.134 | 0.135 | 1.1 | 0.354 | 0.152 | 0.136 | 1 | 0.506 | 0.132 | 0.132 | 1.12 | 0.16 | 0.182 | 0.163 | 0.87 | 0.183 | 0.181 | 0.177 |
| NCI-H1651 | 0.785 | 0.668 | 0.173 | 0.072 | 0.695 | 0.554 | 0.0648 | 0.0578 | 0.694 | 0.53 | 0.163 | 0.0729 | 0.637 | 0.65 | 0.205 | 0.0865 | 0.616 | 0.534 | 0.358 | 0.0861 |
| NCI-H1666 | 0.731 | 0.431 | 0.57 | 0.49 | 1.07 | 0.361 | 0.357 | 0.305 | 0.857 | 0.484 | 0.375 | 0.346 | 1.01 | 0.691 | 0.32 | 0.321 | 1.28 | 0.67 | 0.535 | 0.625 |
| NCI-H1734 | 0.595 | 0.278 | 0.146 | 0.136 | 0.165 | 0.129 | 0.119 | 0.0997 | 0.471 | 0.13 | 0.11 | 0.116 | 0.505 | 0.108 | 0.108 | 0.089 | 0.571 | 0.144 | 0.142 | 0.126 |
| NCI-H1755 | 0.786 | 0.46 | 0.225 | 0.202 | 0.395 | 0.624 | 0.147 | 0.14 | 0.763 | 0.519 | 0.194 | 0.258 | 0.49 | 0.306 | 0.211 | 0.219 | 0.739 | 0.452 | 0.227 | 0.242 |
| NCI-H1793 | 0.388 | 0.174 | 0.15 | 0.151 | 0.218 | 0.107 | 0.144 | 0.12 | 0.268 | 0.13 | 0.107 | 0.123 | 0.83 | 0.144 | 0.156 | 0.121 | 0.599 | 0.25 | 0.107 | 0.158 |
| NCI-H1915 | 0.343 | 0.225 | 0.114 | 0.0978 | 0.292 | 0.142 | 0.0885 | 0.093 | 0.525 | 0.169 | 0.156 | 0.138 | 0.763 | 0.354 | 0.115 | 0.0982 | 0.534 | 0.291 | 0.116 | 0.104 |
| NCI-H1944 | 0.462 | 0.161 | 0.152 | 0.144 | 0.799 | 0.142 | 0.137 | 0.137 | 0.413 | 0.156 | 0.139 | 0.141 | 0.745 | 0.0989 | 0.128 | 0.135 | 0.522 | 0.172 | 0.11 | 0.133 |
| NCI-H1975 | 0.343 | 0.187 | 0.134 | 0.0985 | 0.237 | 0.145 | 0.12 | 0.135 | 0.783 | 0.347 | 0.0912 | 0.0908 | 0.957 | 0.421 | 0.22 | 0.215 | 0.677 | 0.39 | 0.144 | 0.15 |
